Experimental findings from patent publication US12071624B2, “Antisense oligonucleotide targeting ARL4C molecule, and nucleic acid drug using antisense oligonucleotide” (OSAKA UNIVERSITY, priority 2018, dated 2024) are described below.

In series [1] the test system is ARL4C mRNA. The series can be described thus: Screening of ARL4C ASO knockdown efficiency by real-time PCR in A549 cells. The format is cell-based, human. The note with it: screening of 38 types of ARL4C ASOs. As for the experimental part:
(§1) HLE cells, HCT116 cells, and A549 cells were transfected with 25 to 50 nM ASO and 10 to 20 nM siRNA using Lipofectamine 3000 (Invitrogen, Carlsbad, CA, USA) or RNAiMAX (Invitrogen). Transfected cells were used in the experiments 36 to 48 hours after the end of the transfection.
(§2) Cell migration assays and quantitative real-time PCR analyses were performed according to the methods reported by Fujii S et al. (Oncogene 2015; 34: 4834-44).
First, base sequences of 15-nucleotide ARL4C were selected based on the structure of ARL4C mRNA. From thousands of ARL4C ASO candidates, those that may cause hepatotoxicity were excluded, and 38 types of ARL4C ASOs (those other than ASO-1312, ASO-1450 and ASO-3223 among the ASOs in Table 1) were selected, by high-dimensional structure prediction of ARL4C mRNA. The ASOs used in this test were those in which all of the phosphodiester bonds were substituted with phosphorothioate bonds. Knockdown efficiencies of ARL4C ASOs in A549 cells (lung adenocarcinoma cells) were investigated by screening experiments using real-time PCR. It has been confirmed that the protein abundance of ARL4C in A549 cells is reduced by treatment with ARL4C siRNA. The ARL4C mRNA amounts in A549 cells treated with 38 types of ARL4C ASOs were measured, and the results are shown in (a) of FIG. 3.

The subject of series [2] is ARL4C mRNA. In words: ARL4C mRNA amount by real-time PCR in HCT116 cells. It is filed as cell-based, human. As to conditions: HCT116 cells transfected at 25 nM. As for the experimental part:
as §1, §2
HLE cells and HCT116 cells were transfected with the above-described seven types of ARL4C ASOs and the control ASO at 25 nM, and the ARL4C mRNA amounts were measured by real-time PCR; the results thereof are shown in (a) of FIG. 4. […] In order to optimize the effect of these three types of ARL4C ASOs, four bases were added to each of these three types of ARL4C ASOs, whereby ASO-1312, ASO-1450, and ASO-3223 each of which consisted of 19 bases were produced. With these six types of ARL4C ASOs (ASO-1316, ASO-1312, ASO-1454, ASO-1450, ASO-3225, and ASO-3223), the knockdown effect on ARL4C was further studied.
(In general: Quantitative PCR measures a nucleic acid by following its amplification.)

The subject of series [3] is S2-CP8/Luc cells. The series can be described thus: Xenograft orthotopic transplantation model using pancreatic cancer cells. It is filed as in vivo, mouse. As to conditions: twice a week from 3 days after transplantation, 28 days after transplantation. As for the experimental part:
Assay based on the xenograft orthotopic transplantation model using pancreatic cancer cells was performed by arranging the method described in the literature (Kim M P. et. al., Nat Protoc 2009; 4: 1670-80). Specifically, S2-CP8/Luc cells (5×10^5 cells) were suspended in 100 μl of Hanks' Balanced Salt Solution (HBSS) containing 50% matrigel, and were orthotopically transplanted in the central part of the pancreas using a 27 G needle. Three days after transplantation, the mice were divided into two groups, a control ASO-administered group (n=6) and an ARL4C ASO-administered group (n=7). […] Tumors were quantified once a week using the IVIS imaging system (Xenogen Corp.). In the in-vivo imaging, 100 μl of VivoGlo luciferin (30 mg/ml) was intraperitoneally administered, and bioluminescence images were recorded eight minutes after the administration. The quantification of the tumors was carried out in the following manner: a region of interest (ROI) was selected, and a radiance value of the same was measured using Living Image 4.3.1 Software (Caliper Life Science). The mice were euthanized 28 days after the transplantation, tumor weights and the number of mesenteric lymph nodes (lymph nodes of 1 mm or larger in diameter) were determined, and histological analysis was carried out. […]

“ASO-1316: 15-mer AmNA/phosphorothioate ASO targeting ARL4C, base sequence SEQ ID NO: 1 gcatacctcaggtaa; Table 1 SEQ ID NO 13 (antisense GCATACCTCAGGTAA; AmNA and phosphorothioate modified, pattern not given here)”: in series [1], the “knockdown efficiency (ARL4C mRNA amount)” value was “high knockdown efficiencies”. In addition, the “ARL4C mRNA amount” value in series [2] is listed as “reduced the ARL4C mRNA amount”. For the same substance, the “cancer metastasis to mesenteric lymph nodes” value in series [3] was “could suppress cancer metastasis to mesenteric lymph nodes”.
